From PubChem BioAssay (NCI)
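Five concentrations, 48 hours, 96-well plates. The concentration for 50% growth inhibition is given as GI50. TGI: concentration producing complete growth inhibition.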

Key:
Test in all cases: NCI-60 cell line screen, 48 h
U251 CNS = tested on: U251 CNS
SK-MEL-2 melanoma = tested on: SK-MEL-2 melanoma
CAKI-1 renal = tested on: CAKI-1 renal
NCI-H522 lung = tested on: NCI-H522 lung
HL-60(TB) leukemia = tested on: HL-60(TB) leukemia
SF-295 CNS = tested on: SF-295 CNS
SK-MEL-28 melanoma = tested on: SK-MEL-28 melanoma
SNB-19 CNS = tested on: SNB-19 CNS
PC-3 prostate = tested on: PC-3 prostate
IGROV1 ovarian = tested on: IGROV1 ovarian
HCT-15 colon = tested on: HCT-15 colon
RPMI-8226 leukemia = tested on: RPMI-8226 leukemia
HOP-92 NSCLC = tested on: HOP-92 NSCLC
T-47D breast = tested on: T-47D breast
CCRF-CEM leukemia = tested on: CCRF-CEM leukemia
SK-OV-3 ovarian = tested on: SK-OV-3 ovarian
HT29 colon = tested on: HT29 colon
MCF7 breast = tested on: MCF7 breast
OVCAR-8 ovarian = tested on: OVCAR-8 ovarian
DU-145 prostate = tested on: DU-145 prostate
SF-539 CNS = tested on: SF-539 CNS
HCC-2998 colon = tested on: HCC-2998 colon
MOLT-4 leukemia = tested on: MOLT-4 leukemia
SF-268 CNS = tested on: SF-268 CNS
SNB-75 CNS = tested on: SNB-75 CNS
COLO 205 colon = tested on: COLO 205 colon
MDA-MB-435 = tested on: MDA-MB-435
OVCAR-3 ovarian = tested on: OVCAR-3 ovarian
M14 melanoma = tested on: M14 melanoma
UACC-62 melanoma = tested on: UACC-62 melanoma
RXF 393 renal = tested on: RXF 393 renal
KM12 colon = tested on: KM12 colon
A549 NSCLC = tested on: A549 NSCLC
SW-620 colon = tested on: SW-620 colon
NCI-H460 lung = tested on: NCI-H460 lung
MALME-3M melanoma = tested on: MALME-3M melanoma
UO-31 renal = tested on: UO-31 renal
HOP-62 NSCLC = tested on: HOP-62 NSCLC
A498 renal = tested on: A498 renal
786-0 renal = tested on: 786-0 renal
LOX IMVI melanoma = tested on: LOX IMVI melanoma
TK-10 renal = tested on: TK-10 renal
MDA-MB-231 breast = tested on: MDA-MB-231 breast
OVCAR-4 ovarian = tested on: OVCAR-4 ovarian
NCI-H23 lung = tested on: NCI-H23 lung
SN12C renal = tested on: SN12C renal
K-562 leukemia = tested on: K-562 leukemia
SK-MEL-5 melanoma = tested on: SK-MEL-5 melanoma
NCI/ADR-RES ovarian = tested on: NCI/ADR-RES ovarian
ACHN renal = tested on: ACHN renal
BT-549 breast = tested on: BT-549 breast
HCT-116 colon = tested on: HCT-116 colon
HS 578T breast = tested on: HS 578T breast
OVCAR-5 ovarian = tested on: OVCAR-5 ovarian
NCI-H226 lung = tested on: NCI-H226 lung

In the case of `O=C(CCl)Nc1ccccc1SCc1cc(Cl)cc2c1OCOC2`, the GI50 (U251 CNS) is reported as 16.1 µM, the TGI (U251 CNS) is reported as 31.3 µM and the GI50 (SK-MEL-2 melanoma) is reported as 11.4 µM. The TGI (SK-MEL-2 melanoma) was 24.8 µM, the GI50 (CAKI-1 renal) was 5.5 µM and the TGI (CAKI-1 renal) was 32.6 µM. It also gave a GI50 (NCI-H522 lung) of 1850 nM, a TGI (NCI-H522 lung) of 4 µM and a GI50 (HL-60(TB) leukemia) of 2150 nM. For the same compound, the TGI (HL-60(TB) leukemia) was 4.31 µM, the GI50 (SF-295 CNS) was 20 µM and the TGI (SF-295 CNS) was 41.9 µM. For the same compound, the GI50 (SK-MEL-28 melanoma) was 13.5 µM, the TGI (SK-MEL-28 melanoma) was 26.8 µM and the GI50 (SNB-19 CNS) was 14.1 µM. For the same compound, the TGI (SNB-19 CNS) was 28.9 µM, the GI50 (PC-3 prostate) was 11.4 µM and the TGI (PC-3 prostate) was 25.9 µM. It also gave a GI50 (IGROV1 ovarian) of 2270 nM, a TGI (IGROV1 ovarian) of 5.62 µM and a GI50 (HCT-15 colon) of 6.4 µM. It also gave a TGI (HCT-15 colon) of 21.6 µM, a GI50 (RPMI-8226 leukemia) of 6.96 µM and a TGI (RPMI-8226 leukemia) of 40.6 µM. The GI50 (HOP-92 NSCLC) was 3.17 µM, the TGI (HOP-92 NSCLC) was 17.9 µM and the GI50 (T-47D breast) was 9.82 µM. It also gave a TGI (T-47D breast) of 45.2 µM, a GI50 (CCRF-CEM leukemia) of 2180 nM and a TGI (CCRF-CEM leukemia) of 5.35 µM. For the same compound, the GI50 (SK-OV-3 ovarian) was 12.2 µM, the TGI (SK-OV-3 ovarian) was 33.5 µM and the GI50 (HT29 colon) was 4.27 µM. The TGI (HT29 colon) was 14.5 µM, the GI50 (MCF7 breast) was 3.41 µM and the TGI (MCF7 breast) was 15.4 µM. For the same compound, the GI50 (OVCAR-8 ovarian) was 13 µM, the TGI (OVCAR-8 ovarian) was 30.2 µM and the GI50 (DU-145 prostate) was 15.7 µM. The TGI (DU-145 prostate) was 29.4 µM, the GI50 (SF-539 CNS) was 15.3 µM and the TGI (SF-539 CNS) was 28.7 µM. For the same compound, the GI50 (HCC-2998 colon) was 16.6 µM, the TGI (HCC-2998 colon) was 31.5 µM and the GI50 (MOLT-4 leukemia) was 2600 nM. It also gave a TGI (MOLT-4 leukemia) of 7.51 µM, a GI50 (SF-268 CNS) of 7.14 µM and a TGI (SF-268 CNS) of 23.5 µM. For the same compound, the GI50 (SNB-75 CNS) was 8.55 µM, the TGI (SNB-75 CNS) was 23.3 µM and the GI50 (COLO 205 colon) was 17.3 µM. The TGI (COLO 205 colon) was 35.5 µM, the GI50 (MDA-MB-435) was 2870 nM and the TGI (MDA-MB-435) was 11.1 µM. The GI50 (OVCAR-3 ovarian) was 2080 nM, the TGI (OVCAR-3 ovarian) was 4.24 µM and the GI50 (M14 melanoma) was 4.68 µM. It also gave a TGI (M14 melanoma) of 16.8 µM, a GI50 (UACC-62 melanoma) of 5.44 µM and a TGI (UACC-62 melanoma) of 19.9 µM. It also gave a GI50 (RXF 393 renal) of 7.24 µM, a TGI (RXF 393 renal) of 20.9 µM and a GI50 (KM12 colon) of 13.8 µM. The TGI (KM12 colon) was 27.4 µM, the GI50 (A549 NSCLC) was 20.2 µM and the TGI (A549 NSCLC) was 45.1 µM. For the same compound, the GI50 (SW-620 colon) was 3.73 µM, the TGI (SW-620 colon) was 17.1 µM and the GI50 (NCI-H460 lung) was 18.4 µM. It also gave a TGI (NCI-H460 lung) of 38.1 µM, a GI50 (MALME-3M melanoma) of 2300 nM and a TGI (MALME-3M melanoma) of 5.96 µM. It also gave a GI50 (UO-31 renal) of 2950 nM, a TGI (UO-31 renal) of 15 µM and a GI50 (HOP-62 NSCLC) of 19.8 µM. For the same compound, the TGI (HOP-62 NSCLC) was 41.5 µM, the GI50 (A498 renal) was 12.9 µM and the TGI (A498 renal) was 26.2 µM. The GI50 (786-0 renal) was 12.6 µM, the TGI (786-0 renal) was 26.4 µM and the GI50 (LOX IMVI melanoma) was 2160 nM. The TGI (LOX IMVI melanoma) was 5.1 µM, the GI50 (TK-10 renal) was 16.9 µM and the TGI (TK-10 renal) was 31.4 µM. For the same compound, the GI50 (MDA-MB-231 breast) was 5.97 µM, the TGI (MDA-MB-231 breast) was 28 µM and the GI50 (OVCAR-4 ovarian) was 3.14 µM. The TGI (OVCAR-4 ovarian) was 12.5 µM, the GI50 (NCI-H23 lung) was 9.58 µM and the TGI (NCI-H23 lung) was 31.2 µM. It also gave a GI50 (SN12C renal) of 6.69 µM, a TGI (SN12C renal) of 21 µM and a GI50 (K-562 leukemia) of 3.35 µM. The TGI (K-562 leukemia) was 25.1 µM, the GI50 (SK-MEL-5 melanoma) was 4.09 µM and the TGI (SK-MEL-5 melanoma) was 16.4 µM. It also gave a GI50 (NCI/ADR-RES ovarian) of 17.5 µM, a TGI (NCI/ADR-RES ovarian) of 84.8 µM and a GI50 (ACHN renal) of 10.6 µM. It also gave a TGI (ACHN renal) of 23.8 µM, a GI50 (BT-549 breast) of 3.52 µM and a TGI (BT-549 breast) of 11.5 µM. For the same compound, the GI50 (HCT-116 colon) was 4.64 µM, the TGI (HCT-116 colon) was 16.8 µM and the GI50 (HS 578T breast) was 6.25 µM. For the same compound, the TGI (HS 578T breast) was 38.9 µM, the GI50 (OVCAR-5 ovarian) was 13.5 µM and the TGI (OVCAR-5 ovarian) was 27.7 µM. For the same compound, the GI50 (NCI-H226 lung) was 11.2 µM and the TGI (NCI-H226 lung) was 35.6 µM.
